Test [1] concerns contraction of the aorta strip caused by norepinephrine (NE). Nature of the test: Vasodilating action: inhibition of contraction of rabbit aorta strip caused by norepinephrine (NE). The format is cell-based. To be noted: Oryctolagus cuniculus, compound 10^-5 M, NE 10^-6 M, 15 min pretreatment, read-out: Inhibitory percent against contraction, NE. The protocol: (§1) A spiral strip of aorta of a rabbit (2-3 mm width, about 3 cm length) was allowed to equilibrate by hanging under 2 g force in a Krebs-Henseleit solution. The solution was saturated with a mixture gas of 97% O2 --3% CO2 which was warmed to 37° C. Inhibitory actions of compounds (10^-5 M) of this invention against contraction of the aorta strip caused by KCl (60 mM), norepinephrine (NE) (10^-6 M) or serotonin (5--HT) (10^-6 M), by treating the strip with a compound of this invention 15 minutes before the test, are shown in Table 1 as inhibitory percent.

The test system of test [2] is contraction of the aorta strip caused by serotonin (5--HT). Nature of the test: Vasodilating action: inhibition of contraction of rabbit aorta strip caused by serotonin (5-HT). The format is cell-based. Conditions: Oryctolagus cuniculus, compound 10^-5 M, 5-HT 10^-6 M, 15 min pretreatment, read-out: Inhibitory percent against contraction, 5-HT. The protocol:
as §1

For test [3], the system named is contraction of the aorta strip caused by KCl. Nature of the test: Vasodilating action: inhibition of contraction of rabbit aorta strip caused by KCl. In kind it is cell-based. To be noted: Oryctolagus cuniculus, compound 10^-5 M, KCl 60 mM, 15 min pretreatment, read-out: Inhibitory percent against contraction, KCl. As to the method:
as §1

Test [4] relates to spontaneously hypertensive rats. Nature of the test: Antihypertensive action in spontaneously hypertensive rats (tail-cuff). In kind it is in vivo. Conditions: 1 h after administration. The protocol: Male 12 to 13 weeks old spontaneously hypertensive rats with about 200 mm Hg of blood pressure were used in groups of 3 individuals. Mean arterial blood pressures of these animals were measured by the tail-cuff method, then the animals were orally given 3-60 mg/kg of each test compound of this invention as 2 ml of its suspension in gum arabic. Blood pressure measurements were made again one hour after administration of each test compound.

Structures can show the parent of a compound that is named as a salt. Where two headings read alike, the source gives them in different places.

On to `COc1ccccc1N1CCN(CCCC2Sc3cccc(OC)c3NC2=O)CC1` (stereo not shown) [Example 4], for which the inhibition at 10 µM was determined as 100% in test [1], 12% in test [2] and 18% in test [3].

`Cc1cccc2c1NC(=O)C(CCCN1CCN(c3ccccc3)CC1)S2` (stereo not shown) [Example 13]: the “Antihypertensive effect (difference of blood pressure before and after medication)” value in test [4] (60 mg/Kg oral) is on record as 36 ΔmmHg. For the same molecule, the figures for the inhibition at 10 µM in test [1], in test [2] and in test [3] were 100%, 92% and 40%, respectively.

For the molecule `O=C1Nc2ccccc2SC1CCCN1CCN(c2ccccc2)CC1` (stereo not shown) [Example 2], the “Antihypertensive effect (difference of blood pressure before and after medication)” value in test [4] (30 mg/Kg oral) is recorded as 43 ΔmmHg. Moreover, the results for the inhibition at 10 µM in test [1], in test [2] and in test [3] were 100%, 97% and 70%, respectively.

Regarding `O=C1Nc2ccccc2SC1CCCN1CCN(c2ccc(F)cc2)CC1` (stereo not shown) [Example 3], the values for the inhibition at 10 µM in test [1] and in test [3] were 100% and 53%, respectively.

Take `COc1ccc2c(c1)SC(CCCN1CCN(c3ccccc3)CC1)C(=O)N2` (stereo not shown) [Example 5]: in test [4] (10 mg/Kg oral), the “Antihypertensive effect (difference of blood pressure before and after medication)” value is listed as 49 ΔmmHg. Further, the inhibition at 10 µM in test [1] was found to be 100%; in test [2] it was 100%; in test [3] it was 10%.

With `O=C1Nc2c(ccc3c2CCCC3)SC1CCCN1CCN(c2ccc(F)cc2)CC1` (stereo not shown) [Example 47, 3-[3-[4-(4-fluorophenyl)-1-piperazinyl]propyl]-7,8,9,10-tetrahydro-1H-naphtho[2,1-b][1,4]thiazin-2(3H)-one.hydrochloride], the “Antihypertensive effect (difference of blood pressure before and after medication)” value in test [4] (30 mg/Kg oral) is 35 ΔmmHg.

Consider `COc1ccccc1N1CCN(CCC2Sc3ccccc3N(C)C2=O)CC1` (stereo not shown) [Example 32], for which the “Antihypertensive effect (difference of blood pressure before and after medication)” value in test [4] (60 mg/Kg oral) is on record as 30 ΔmmHg. Moreover, the inhibition at 10 µM in test [1] is 100%; in test [2] it was 88%.

In the case of `COc1ccccc1N1CCN(CCCC2Sc3cc(C)ccc3NC2=O)CC1` (stereo not shown) [Example 21], the inhibition at 10 µM came to 100% in test [1], 56% in test [2] and 32% in test [3].

As for `CN1C(=O)C(CCN2CCN(c3ccc(F)cc3)CC2)Sc2ccccc21` (stereo not shown) [Example 30, 2-[2-[4(4-fluorophenyl)-1-piperazinyl]ethyl]-4-methyl-2H-1,4-benzothiazin-3(4H)-one], the “Antihypertensive effect (difference of blood pressure before and after medication)” value in test [4] (30 mg/Kg oral) is on record as 40 ΔmmHg. The inhibition at 10 µM stood at 90% in test [1] (0.25 h), 100% in test [2] and 42% in test [3].

`CN1C(=O)C(CCN2CCN(c3ccccc3)CC2)Sc2ccccc21` (stereo not shown) [Example 31]: the values for the inhibition at 10 µM in test [1], in test [2] and in test [3] were 100%, 62% and 40%, respectively.

Regarding `COc1ccccc1N1CCN(CCCC2Sc3cccc(C)c3NC2=O)CC1` (stereo not shown) [Example 16], the inhibition at 10 µM in test [1] turned out to be 100%; in test [2], 70%; in test [3] it was 33%.

In the case of `O=C1Nc2cc3c(cc2SC1CCCN1CCN(c2ccc(F)cc2)CC1)OCO3` (stereo not shown) [Example 45, 6-[3-[4-(4-fluorophenyl)-1-piperazinyl]propyl]-6H-1,3-dioxolo[4,5-g][1,4]benzothiazin-7(8H)-one.dihydrochloride], in test [4] (30 mg/Kg oral), the “Antihypertensive effect (difference of blood pressure before and after medication)” value is 30 ΔmmHg.

With `COc1ccccc1N1CCN(CCC2Sc3ccccc3NC2=O)CC1` (stereo not shown) [Example 28], the “Antihypertensive effect (difference of blood pressure before and after medication)” value in test [4] (30 mg/Kg oral) is on record as 29 ΔmmHg. Moreover, the inhibition at 10 µM in test [1] was found to be 100%; in test [2], 100%; in test [3], 15%.

Take `O=C1Nc2ccccc2SC1CCN1CCN(c2ccc(F)cc2)CC1` (stereo not shown) [Example 26]: the “Antihypertensive effect (difference of blood pressure before and after medication)” value in test [4] (30 mg/Kg oral) is 26 ΔmmHg. Besides, the inhibition at 10 µM in test [1] (0.25 h) and in test [3] was 60% in each case.

As to `COc1ccccc1N1CCN(CCCC2Sc3cc(Cl)ccc3NC2=O)CC1` (stereo not shown) [Example 9], in test [4] (60 mg/Kg oral), the “Antihypertensive effect (difference of blood pressure before and after medication)” value was 35 ΔmmHg. Also, the inhibition at 10 µM in test [1] was 100%; in test [2] it was 44%; in test [3] it was 40%.

As to `CCN1C(=O)C(CCN2CCN(c3ccccc3OC)CC2)Sc2ccccc21` (stereo not shown) [Example 36, 4-ethyl-2-[2-[4-(2-methoxyphenyl)-1-piperazinyl]ethyl]-2H-1,4-benzothiazin-3(4H)-one], the values for the inhibition at 10 µM in test [1] (0.25 h), in test [2] and in test [3] were 100%, 100% and 15%, respectively.

With `Cc1ccc2c(c1C)NC(=O)C(CCCN1CCN(c3ccc(F)cc3)CC1)S2` (stereo not shown) [Example 42], the “Antihypertensive effect (difference of blood pressure before and after medication)” value in test [4] (30 mg/Kg oral) is recorded as 28 ΔmmHg.

Consider `Cc1cccc(N2CCN(CCCC3Sc4cccc(C)c4NC3=O)CC2)c1` (stereo not shown) [Example 18], for which the inhibition at 10 µM in test [1] was found to be 100%; in test [3], 50%.

For `COc1ccccc1N1CCN(CCCC2Sc3ccc(Cl)cc3NC2=O)CC1` (stereo not shown) [Example 8], the inhibition at 10 µM in test [1] amounted to 100%; in test [2] it was 18%; in test [3] it was 34%.

As to `O=C1Nc2cc(C(F)(F)F)ccc2SC1CCCN1CCN(c2ccc(F)cc2)CC1` (stereo not shown) [Example 10], the “Antihypertensive effect (difference of blood pressure before and after medication)” value in test [4] (30 mg/Kg oral) is listed as 33 ΔmmHg. Besides, the inhibition at 10 µM in test [1] was determined as 100%; in test [3], 45%.

In the case of `COc1ccc2c(c1)SC(CCN1CCN(c3ccccc3)CC1)C(=O)N2` (stereo not shown) [Example 29], the “Antihypertensive effect (difference of blood pressure before and after medication)” value in test [4] (10 mg/Kg oral) is listed as 38 ΔmmHg. Further, the inhibition at 10 µM in test [1] was 96%; in test [2], 73%; in test [3] it was 15%.

Turning to `COc1ccccc1N1CCN(CCCC2Sc3cc(C)c(C)cc3NC2=O)CC1` (stereo not shown) [Example 23], the “Antihypertensive effect (difference of blood pressure before and after medication)” value in test [4] (30 mg/Kg oral) is 48 ΔmmHg. Also, the inhibition at 10 µM stood at 100% in test [1] and 40% in test [3].

For the molecule `Cc1cccc2c1NC(=O)C(CCCN1CCN(c3cccc(C(F)(F)F)c3)CC1)S2` (stereo not shown) [Example 19], the inhibition at 10 µM is 100% in test [1] and 55% in test [3].

`Cc1ccccc1N1CCN(CCCC2Sc3cccc(C)c3NC2=O)CC1` (stereo not shown) [Example 17]: the “Antihypertensive effect (difference of blood pressure before and after medication)” value in test [4] (30 mg/Kg oral) is listed as 26 ΔmmHg. Further, the inhibition at 10 µM in test [1] stood at 100%; in test [3], 11%.

With `Cc1ccc(N2CCN(CCCC3Sc4cccc(C)c4NC3=O)CC2)cc1` (stereo not shown) [Example 7], the inhibition at 10 µM was 60% in test [1] and 77% in test [3].

With `CCc1cccc2c1NC(=O)C(CCCN1CCN(c3ccc(F)cc3)CC1)S2` (stereo not shown) [Example 41], in test [4] (30 mg/Kg oral), the “Antihypertensive effect (difference of blood pressure before and after medication)” value is 23 ΔmmHg.

For `COc1cccc2c1NC(=O)C(CCCN1CCN(c3ccccc3)CC1)S2` (stereo not shown) [Example 24], the results for the inhibition at 10 µM in test [1], in test [2] and in test [3] were 100%, 66% and 20%, respectively.

Turning to `O=C1Nc2ccccc2SC1CCCCN1CCN(c2ccc(F)cc2)CC1` (stereo not shown) [Example 38, 2-[4-[4-(4-fluorophenyl)-1-piperazinyl]butyl]-2H-1,4-benzothiazin-3(4H)-one], the “Antihypertensive effect (difference of blood pressure before and after medication)” value in test [4] (30 mg/Kg oral) was 32 ΔmmHg. For the same molecule, the inhibition at 10 µM turned out to be 100% in test [1] (0.25 h) and 30% in test [3].

As to `O=C1Nc2ccccc2SC1CCN1CCN(c2ccccc2)CC1` (stereo not shown) [Example 27], the inhibition at 10 µM in test [1] came to 100%; in test [2], 100%; in test [3] it was 20%.

The record behind these values is US4640916A, “1,4-benzothiazine derivatives, compositions containing them and method of use” (priority 1984, dated 1987).
